Experimental data from ChEMBL document CHEMBL3098074, “Synthesis and tumor cell growth inhibitory activity of biotinylated annonaceous acetogenins” (Eur J Med Chem, 2014).

Columns and labels:
L1210 [1] = assay: Selectivity index, ratio of IC50 for mouse L1210 cells to IC50 for mouse P815 cells; assay type: functional
L1210 [2] = assay: Selectivity index, ratio of IC50 for mouse L1210 cells to IC50 for mouse 4T1 cells; assay type: functional
P815 [3] = assay: Cytotoxicity against mouse P815 cells expressing biotin receptor after 72 hrs by MTT assay; assay type: functional, cell-based; conditions: P815, 72 h
4T1 [4] = assay: Cytotoxicity against mouse 4T1 cells expressing biotin receptor after 72 hrs by MTT assay; assay type: functional, cell-based; conditions: 4T1, 72 h
L1210 [5] = assay: Cytotoxicity against mouse L1210 cells after 72 hrs by MTT assay; assay type: functional, cell-based; conditions: L1210, 72 h
P815 [6] = assay: Ratio of squamocin IC50 to compound IC50 for mouse P815 cells expressing biotin receptor; assay type: functional
4T1 [7] = assay: Ratio of squamocin IC50 to compound IC50 for mouse 4T1 cells expressing biotin receptor; assay type: functional
P815 [8] = assay: Ratio of bullatacin IC50 to compound IC50 for mouse P815 cells expressing biotin receptor; assay type: functional
4T1 [9] = assay: Ratio of bullatacin IC50 to compound IC50 for mouse 4T1 cells expressing biotin receptor; assay type: functional
[10] = Antitumor activity against mouse HepS cells xenografted in mouse assessed as tumor growth inhibition at 30 ug/kg; assay type: functional; conditions: read-out: TGI

| SMILES | Ratio IC50 (L1210 [1]) | Ratio IC50 (L1210 [2]) | IC50 (P815 [3]) | IC50 (4T1 [4]) | IC50 (L1210 [5]) | Ratio IC50 (P815 [6]) | Ratio IC50 (4T1 [7]) | Ratio IC50 (P815 [8]) | Ratio IC50 (4T1 [9]) | inhibition in vivo at 0.03 mg/kg [10] |
| --- | --- | --- | --- | --- | --- | --- | --- | --- | --- | --- |
| CCCCCCCCCC[C@H](OC(=O)CCCCCNC(=O)CCCC[C@@H]1SC[C@@H]2NC(=O)N[C@@H]21)[C@H]1CC[C@H]([C@H]2CC[C@H]([C@H](O)CCCCCCCCCC[C@H](CC3=C[C@H](C)OC3=O)OC(=O)CCCCCNC(=O)CCCC[C@@H]3SC[C@@H]4NC(=O)N[C@@H]43)O2)O1 | 1.96 | 26.73 | 0.75 µM | 0.055 µM | 1.47 µM | – | – | – | – | – |
| CCCCCC[C@H](O)CCC[C@H](O)[C@H]1CC[C@H]([C@H]2CC[C@H]([C@@H](CCCCCCCCCCCCC3=C[C@H](C)OC3=O)OC(=O)CCCC[C@@H]3SC[C@@H]4NC(=O)N[C@@H]43)O2)O1 | <0.036 | 0.25 | > 20 µM | 2.91 µM | 0.72 µM | – | – | – | – | – |
| CCCCCC[C@H](O)CCC[C@H](OC(=O)CCCC[C@@H]1SC[C@@H]2NC(=O)N[C@@H]21)[C@H]1CC[C@H]([C@H]2CC[C@H]([C@H](O)CCCCCCCCCCCCC3=C[C@H](C)OC3=O)O2)O1 | <0.048 | 1.52 | > 20 µM | 0.63 µM | 0.96 µM | – | – | – | – | – |
| CCCCCC[C@@H](CCC[C@H](O)[C@H]1CC[C@H]([C@H]2CC[C@H]([C@H](O)CCCCCCCCCCCCC3=C[C@H](C)OC3=O)O2)O1)OC(=O)CCCC[C@@H]1SC[C@@H]2NC(=O)N[C@@H]21 | 0.62 | 16.94 | 1.34 µM | 0.049 µM | 0.83 µM | – | – | – | – | – |
| CCCCCC[C@@H](CCC[C@H](O)[C@H]1CC[C@H]([C@H]2CC[C@H]([C@@H](CCCCCCCCCCCCC3=C[C@H](C)OC3=O)OC(=O)CCCC[C@@H]3SC[C@@H]4NC(=O)N[C@@H]43)O2)O1)OC(=O)CCCC[C@@H]1SC[C@@H]2NC(=O)N[C@@H]21 | <0.063 | 0.26 | > 20 µM | 4.87 µM | 1.25 µM | – | – | – | – | – |
| CCCCCC[C@@H](CCC[C@H](OC(=O)CCCC[C@@H]1SC[C@@H]2NC(=O)N[C@@H]21)[C@H]1CC[C@H]([C@H]2CC[C@H]([C@H](O)CCCCCCCCCCCCC3=C[C@H](C)OC3=O)O2)O1)OC(=O)CCCC[C@@H]1SC[C@@H]2NC(=O)N[C@@H]21 | <0.28 | 19.62 | > 20 µM | 0.29 µM | 5.69 µM | – | – | – | – | – |
| CCCCCC[C@H](O)CCC[C@H](O)[C@H]1CC[C@H]([C@H]2CC[C@H]([C@@H](CCCCCCCCCCCCC3=C[C@H](C)OC3=O)OC(=O)CCCCCNC(=O)CCCC[C@@H]3SC[C@@H]4NC(=O)N[C@@H]43)O2)O1 | 0.48 | 14.94 | 2.41 µM | 0.077 µM | 1.15 µM | – | – | – | – | – |
| CCCCCC[C@H](O)CCC[C@H](OC(=O)CCCCCNC(=O)CCCC[C@@H]1SC[C@@H]2NC(=O)N[C@@H]21)[C@H]1CC[C@H]([C@H]2CC[C@H]([C@H](O)CCCCCCCCCCCCC3=C[C@H](C)OC3=O)O2)O1 | <0.069 | 0.9 | > 20 µM | 1.54 µM | 1.38 µM | – | – | – | – | – |
| CCCCCC[C@@H](CCC[C@H](O)[C@H]1CC[C@H]([C@H]2CC[C@H]([C@H](O)CCCCCCCCCCCCC3=C[C@H](C)OC3=O)O2)O1)OC(=O)CCCCCNC(=O)CCCC[C@@H]1SC[C@@H]2NC(=O)N[C@@H]21 | <0.034 | 0.1 | > 20 µM | 6.57 µM | 0.68 µM | – | – | – | – | – |
| CCCCCC[C@H](O)CCC[C@H](OC(=O)CCCCCNC(=O)CCCC[C@@H]1SC[C@@H]2NC(=O)N[C@@H]21)[C@H]1CC[C@H]([C@H]2CC[C@H]([C@@H](CCCCCCCCCCCCC3=C[C@H](C)OC3=O)OC(=O)CCCCCNC(=O)CCCC[C@@H]3SC[C@@H]4NC(=O)N[C@@H]43)O2)O1 | 0.9 | 2.47 | 0.93 µM | 0.34 µM | 0.84 µM | – | – | – | – | – |
| CCCCCC[C@@H](CCC[C@H](O)[C@H]1CC[C@H]([C@H]2CC[C@H]([C@@H](CCCCCCCCCCCCC3=C[C@H](C)OC3=O)OC(=O)CCCCCNC(=O)CCCC[C@@H]3SC[C@@H]4NC(=O)N[C@@H]43)O2)O1)OC(=O)CCCCCNC(=O)CCCC[C@@H]1SC[C@@H]2NC(=O)N[C@@H]21 | 1.05 | 22.57 | 0.75 µM | 0.035 µM | 0.79 µM | >26 | >10 | – | – | – |
| CCCCCC[C@@H](CCC[C@H](OC(=O)CCCCCNC(=O)CCCC[C@@H]1SC[C@@H]2NC(=O)N[C@@H]21)[C@H]1CC[C@H]([C@H]2CC[C@H]([C@H](O)CCCCCCCCCCCCC3=C[C@H](C)OC3=O)O2)O1)OC(=O)CCCCCNC(=O)CCCC[C@@H]1SC[C@@H]2NC(=O)N[C@@H]21 | <0.059 | 0.63 | > 20 µM | 1.87 µM | 1.18 µM | – | – | – | – | – |
| CCCCCCCCCC[C@H](O)[C@H]1CC[C@H]([C@H]2CC[C@H]([C@H](O)CCCCCCCCCC[C@H](CC3=C[C@H](C)OC3=O)OC(=O)CCCC[C@@H]3SC[C@@H]4NC(=O)N[C@@H]43)O2)O1 | <0.071 | 2.18 | > 20 µM | 0.65 µM | 1.42 µM | – | – | – | – | – |
| CCCCCCCCCC[C@H](O)[C@H]1CC[C@H]([C@H]2CC[C@H]([C@@H](CCCCCCCCCC[C@@H](O)CC3=C[C@H](C)OC3=O)OC(=O)CCCC[C@@H]3SC[C@@H]4NC(=O)N[C@@H]43)O2)O1 | 0.88 | 32.62 | 1.55 µM | 0.042 µM | 1.37 µM | – | – | – | – | – |
| CCCCCCCCCC[C@H](OC(=O)CCCC[C@@H]1SC[C@@H]2NC(=O)N[C@@H]21)[C@H]1CC[C@H]([C@H]2CC[C@H]([C@H](O)CCCCCCCCCC[C@@H](O)CC3=C[C@H](C)OC3=O)O2)O1 | <0.29 | 3.47 | > 20 µM | 1.67 µM | 5.79 µM | – | – | – | – | – |
| CCCCCCCCCC[C@H](O)[C@H]1CC[C@H]([C@H]2CC[C@H]([C@H](O)CCCCCCCCCC[C@H](CC3=C[C@H](C)OC3=O)OC(=O)CCCCCNC(=O)CCCC[C@@H]3SC[C@@H]4NC(=O)N[C@@H]43)O2)O1 | 2.39 | 39.62 | 0.88 µM | 0.053 µM | 2.1 µM | – | – | – | – | – |
| CCCCCCCCCC[C@H](O)[C@H]1CC[C@H]([C@H]2CC[C@H]([C@@H](CCCCCCCCCC[C@@H](O)CC3=C[C@H](C)OC3=O)OC(=O)CCCCCNC(=O)CCCC[C@@H]3SC[C@@H]4NC(=O)N[C@@H]43)O2)O1 | <0.092 | 6.1 | > 20 µM | 0.3 µM | 1.83 µM | – | – | – | – | – |
| CCCCCCCCCC[C@H](OC(=O)CCCCCNC(=O)CCCC[C@@H]1SC[C@@H]2NC(=O)N[C@@H]21)[C@H]1CC[C@H]([C@H]2CC[C@H]([C@H](O)CCCCCCCCCC[C@@H](O)CC3=C[C@H](C)OC3=O)O2)O1 | 2.66 | 29.46 | 0.41 µM | 0.037 µM | 1.09 µM | – | – | 8 | 3 | – |
| CCCCCCCCCC[C@H](O)[C@H]1CC[C@H]([C@H]2CC[C@H]([C@@H](CCCCCCCCCC[C@H](CC3=C[C@H](C)OC3=O)OC(=O)CCCCCNC(=O)CCCC[C@@H]3SC[C@@H]4NC(=O)N[C@@H]43)OC(=O)CCCCCNC(=O)CCCC[C@@H]3SC[C@@H]4NC(=O)N[C@@H]43)O2)O1 | <0.1 | 1.92 | > 20 µM | 1.06 µM | 2.04 µM | – | – | – | – | – |
| CCCCCCCCCC[C@@H](O)[C@@H]1CC[C@@H]([C@@H]2CC[C@@H]([C@H](O)CCCCCCCCCC(O)CC3=CC(C)OC3=O)O2)O1 (stereo not given in full) [BULLATACIN] | 0.67 | 21.09 | 3.48 µM | 0.11 µM | 2.32 µM | – | – | – | – | – |
| CCCCCC[C@H](O)CCC[C@H](O)[C@H]1CC[C@H]([C@H]2CC[C@H]([C@H](O)CCCCCCCCCCCCC3=C[C@H](C)OC3=O)O2)O1 [SQUAMOCIN] | 0.068 | 3.75 | 19.8 µM | 0.36 µM | 1.35 µM | – | – | – | – | 78% |
